Data taken from patent US20200079765A1, “SUBSTITUTED HETEROARYL PYRROLONES AND SALTS THEREOF AND USE THEREOF AS HERBICIDAL ACTIVE SUBSTANCES” (Bayer CropScience Aktiengesellschaft, priority 2016, published 2020).

Key:
Abutilon theophrasti [1] = experiment: Herbicidal post-emergence action (Experimental Part 2, C); assay type: in vivo; details: post-emergence (Part 2), application rate 320 g/ha, rated visually after about 3 weeks
Experimental: (§1) Seeds of mono- and dicotyledonous weed plants were placed in plastic pots in sandy loam soil (doubly sown with in each case one species of mono- or dicotyledonous weed plants per pot), covered with soil and cultivated in a greenhouse under controlled growth conditions. 2 to 3 weeks after sowing, the test plants were treated at the one-leaf stage. The compounds of the invention, formulated in the form of wettable powders (WP) or as emulsion concentrates (EC), were applied onto the green parts of the plants as aqueous suspension or emulsion with addition of 0.5% additive at a water application rate of 600 liters per hectare (converted). After the test plants had been kept in the greenhouse under optimum growth conditions for about 3 weeks, the activity of the preparations was rated visually in comparison to untreated controls. For example, 100% activity=the plants have died, 0% activity=like control plants. Tables C1 to C8 below show the effects of selected compounds of the general formula (I) according to Tables I.1 to I.116 on various harmful plants and an application rate corresponding to 1280 g/ha or 320 g/ha, which were obtained by the experimental procedure mentioned above.

Amaranthus retroflexus [2] = experiment: as above; assay type: in vivo; details: post-emergence (Part 2), application rate 320 g/ha, rated visually after about 3 weeks
Experimental: as §1

Echinochloa crus-galli [3] = experiment: as above; assay type: in vivo; details: post-emergence (Part 2), rated visually after about 3 weeks
Experimental: as §1

Lolium rigidum [4] = experiment: as above; assay type: in vivo; details: post-emergence (Part 2), rated visually after about 3 weeks
Experimental: as §1

Matricaria inodora [5] = experiment: as above; assay type: in vivo; details: post-emergence (Part 2), application rate 320 g/ha, rated visually after about 3 weeks
Experimental: as §1

Poa annua [6] = experiment: as above; assay type: in vivo; details: post-emergence (Part 2), application rate 320 g/ha, rated visually after about 3 weeks
Experimental: as §1

Setaria viridis [7] = experiment: as above; assay type: in vivo; details: post-emergence (Part 2), application rate 320 g/ha, rated visually after about 3 weeks
Experimental: as §1

Stellaria media [8] = experiment: as above; assay type: in vivo; details: post-emergence (Part 2), application rate 320 g/ha, rated visually after about 3 weeks
Experimental: as §1

Abutilon theophrasti [9] = experiment: Herbicidal pre-emergence action (Experimental Part 2, D); assay type: in vivo; details: pre-emergence (Part 2), application rate 320 g/ha, scored visually after about 3 weeks
Source text: (§2) Seeds of mono- and dicotyledonous weed plants were placed in plastic pots in sandy loam soil (doubly sown with in each case one species of mono- or dicotyledonous weed plants per pot) and covered with soil. The compounds of the invention, formulated in the form of wettable powders (WP) or as emulsion concentrates (EC), were then applied onto the surface of the covering soil as aqueous suspension or emulsion with addition of 0.5% additive at a water application rate of 600 liters per hectare (converted). After the treatment, the pots are placed in a greenhouse and kept under good growth conditions for the trial plants. After about 3 weeks, the effect of the preparations was scored visually in comparison with untreated controls as percentages. For example, 100% activity=the plants have died, 0% activity=like control plants. Tables D1 to D8 below show the effects of selected compounds of the general formula (I) according to Tables I.1 to I.116 on various harmful plants and an application rate corresponding to 1280 g/ha or 320 g/ha, which were obtained by the experimental procedure mentioned above.

Amaranthus retroflexus [10] = experiment: as above; assay type: in vivo; details: pre-emergence (Part 2), application rate 320 g/ha, scored visually after about 3 weeks
Source text: as §2

Echinochloa crus-galli [11] = experiment: as above; assay type: in vivo; details: pre-emergence (Part 2), application rate 320 g/ha, scored visually after about 3 weeks
Source text: as §2

Lolium rigidum [12] = experiment: as above; assay type: in vivo; details: pre-emergence (Part 2), scored visually after about 3 weeks
Source text: as §2

Matricaria inodora [13] = experiment: as above; assay type: in vivo; details: pre-emergence (Part 2), application rate 320 g/ha, scored visually after about 3 weeks
Source text: as §2

Poa annua [14] = experiment: as above; assay type: in vivo; details: pre-emergence (Part 2), application rate 320 g/ha, scored visually after about 3 weeks
Source text: as §2

Setaria viridis [15] = experiment: as above; assay type: in vivo; details: pre-emergence (Part 2), scored visually after about 3 weeks
Source text: as §2

Stellaria media [16] = experiment: as above; assay type: in vivo; details: pre-emergence (Part 2), application rate 320 g/ha, scored visually after about 3 weeks
Source text: as §2

photosystem II (PS II) = biological target: T1, photosystem II (PS II) (Spinacia oleracea, UniProt P69560); experiment: Measurement of the PS II activity in thylakoid membranes (DCPIP reduction, Experimental Part 3, Table E1); assay type: biochemical; details: spinach thylakoid membranes
T1 construct: the chloroplasts were osmotically ruptured and the thylakoid membranes were then obtained by centrifugation; from tissue; host or cells: thylakoid membranes from fresh spinach leaves
Experimental: Cooled fresh spinach leaves were comminuted and homogenized in 50 mM phosphate buffer, pH 6.8. 10 mM KCl, 0.34 M sucrose (sucrose buffer) (blender, 1 g of plant material/ml). The homogenate was subsequently filtered through 4 layers of Miracloth and the chloroplasts were isolated by centrifugation, i.e. 10 min of centrifugation at 4400×g (4° C.). The sediment was suspended in 25 ml of sucrose buffer and re-centrifuged for 10 min at 4400×g (4° C.). The sediment was then suspended in 40 ml of 50 mM phosphate buffer, pH 6.8, 10 mM KCl, without sucrose. In this step, the chloroplasts were osmotically ruptured and the thylakoid membranes were then obtained by centrifugation (10 min, 4400×g, 4° C.). The membrane sediment was finally suspended in about 20 ml of 50 mM phosphate buffer, pH 6.8, 10 mM KCl. Following protein determination and activity determination, the membrane suspension was divided into aliquots and frozen in liquid nitrogen. The aliquots were stored at −80° C. Under these conditions, the photosystem II preparation was storage stable for at least three months. The activity determination of photosystem II (PS II) was then carried out using the following test principle: The electron transfer from PS II to an artificial electron acceptor, 2,6-dichlorophenolindophenol (DCPIP), was measured with exposure to light. The concentration of the blue oxidized form of DCPIP was determined spectrophotometrically at wavelength λ=595 nm. […] The activity determination was carried out in microtiter plates (96 cavities) in a reaction volume of 200 μl. Here, 155 μl of dilute membrane suspension were initially charged in 50 mM of phosphate buffer, pH 6.8, 10 mM KCl. Depending on the activity of the PS II preparation, the dilution was adjusted such that the measurement of the decrease in absorption (λ=595 nm) was linear for at least 10 min. In each case 5 μl solution of the test compounds of a concentration of 100 μM in DMSO were added to the enzyme suspension; controls contained 5 μl DMSO; the final concentration of DMSO in the reaction batch was thus 2.5% (v/v); this concentration had no adverse effect on the enzymatic activity. On each microtiter plate, a known PS II inhibitor, for example metribuzin, was used as standard, which allowed the quality of the PS II test to be assessed. The reaction was started by addition of 40 μl DCPIP solution (600 μM in distilled water); the final concentration of DCPIP was 120 μM. Measurement of absorption was carried out over a period of 10 min at 22° C. and with exposure to light. Using metribuzin as comparative substance, the results for the efficacy of the compounds of the general formula (I) at 100 μM are stated in the table below using the following classification: ++++ (inhibition≥90%), +++ (90%>inhibition≥70%), ++ (70%>inhibition≥50%), + (50%>inhibition≥30%).
Effects of selected compounds of the general formula (I) according to the following table E1: […]

| Compound | Abutilon theophrasti, herbicidal activity (Abutilon theophrasti [1]) | Amaranthus retroflexus, herbicidal activity (Amaranthus retroflexus [2]) | Echinochloa crus-galli, herbicidal activity (Echinochloa crus-galli [3]; application rate 320 g/ha) | Lolium rigidum, herbicidal activity (Lolium rigidum [4]; application rate 320 g/ha) | Matricaria inodora, herbicidal activity (Matricaria inodora [5]) | Poa Annua, herbicidal activity (Poa annua [6]) | Setaria viridis, herbicidal activity (Setaria viridis [7]) | Stellaria media, herbicidal activity (Stellaria media [8]) | Abutilon theophrasti, herbicidal activity (Abutilon theophrasti [9]) | Amaranthus retroflexus, herbicidal activity (Amaranthus retroflexus [10]) | Echinochloa crus-galli, herbicidal activity (Echinochloa crus-galli [11]) | Lolium rigidum, herbicidal activity (Lolium rigidum [12]; application rate 320 g/ha) | Matricaria inodora, herbicidal activity (Matricaria inodora [13]) | Poa Annua, herbicidal activity (Poa annua [14]) | Setaria viridis, herbicidal activity (Setaria viridis [15]; application rate 320 g/ha) | Stellaria media, herbicidal activity (Stellaria media [16]) | Effect (inhibition of PS II activity) (photosystem II (PS II)) | Echinochloa crus-galli, herbicidal activity (Echinochloa crus-galli [3]; application rate 1280 g/ha) | Lolium rigidum, herbicidal activity (Lolium rigidum [4]; application rate 1280 g/ha) | also measured |
| --- | --- | --- | --- | --- | --- | --- | --- | --- | --- | --- | --- | --- | --- | --- | --- | --- | --- | --- | --- | --- |
| CC1=CC(O)N(c2cc(C(C)(C)C)on2)C1=O (stereo not drawn) [I.2-162, 5-hydroxy-3-methyl-1-(5-tert-butyl-1,2-isoxazol-3-yl)-1,5-dihydro-2H-pyrrol-2-one] | 100% | 100% | 100% | 90% | 100% | 100% | 100% | 100% | 100% | 100% | 100% | 90% | 100% | 100% | 100% | 100% | ++++ (inhibition≥90%) |  |  |  |
| CC1=CC(O)N(c2noc(C(C)(C)C)c2C)C1=O (stereo not drawn) [I.2-177] | 100% | 100% | 100% | 90% | 100% | 100% |  | 100% | 100% | 90% | 100% | 90% | 100% | 100% | 100% | 100% | ++++ (inhibition≥90%) |  |  |  |
| CC1=CC(O)N(c2cc(C(C)(C)C)no2)C1=O (stereo not drawn) [I.2-290, 5-hydroxy-3-methyl-1-(3-tert-butyl-1,2-isoxazol-5-yl)-1,5-dihydro-2H-pyrrol-2-one] | 100% | 100% |  |  | 100% | 100% | 100% | 100% | 100% | 100% | 100% |  | 100% | 100% |  | 100% | ++++ (inhibition≥90%) | 100% | 100% | Lolium rigidum, herbicidal activity (Lolium rigidum [12]; application rate 1280 g/ha): 100%; Setaria viridis, herbicidal activity (Setaria viridis [15]; application rate 1280 g/ha): 100% |
| CCC(=O)OC1C=C(C)C(=O)N1c1cc(C(C)(C)C)no1 (stereo not drawn) [I.6-290] | 100% | 100% |  |  | 100% | 100% | 100% | 100% | 100% | 100% | 90% | 90% | 100% | 100% | 90% | 100% |  | 100% | 90% |  |
